Patent publication US20190022096A1, “METHODS OF TREATING CANCER” (Corvus Pharmaceuticals, Inc., priority 2017, published 2019)
Several values for one entry are separate records, joined by “and”; a condition that tells them apart may be missing. Equal values may be shown once. Entries after “also recorded” stand apart in the source; their conditions may differ.

Key:
[1] = test system: NECA-induced pCREB in CD4+ T cells; assay: NECA-induced pCREB in CD4+ T cells of whole blood of treated patients (flow cytometry)
Experimental: (§1) On day 14, blood was collected prior to dosing (0 hr, trough) and for a time course post-dose (1.5, 3, 5.5, 8 hr) (FIGS. 26-28). The level of signaling was determined and the percent inhibition on Day 14 compared to Day 1 pre-treatment was calculated.

A2AR [2] = molecular target: T1, A2AR (Homo sapiens, UniProt P29274); assay: IL-2 and IFNγ secretion from activated primary human PBMCs (AlphaLISA); type: cell-based; design: endogenous in cells; host or cells: primary human T cells / human PBMCs; conditions: CPI-444 1 μM; NECA or CGS21680 1 μM; anti-CD3/anti-CD28 48 hours
T1 sequence (P29274 whole entry): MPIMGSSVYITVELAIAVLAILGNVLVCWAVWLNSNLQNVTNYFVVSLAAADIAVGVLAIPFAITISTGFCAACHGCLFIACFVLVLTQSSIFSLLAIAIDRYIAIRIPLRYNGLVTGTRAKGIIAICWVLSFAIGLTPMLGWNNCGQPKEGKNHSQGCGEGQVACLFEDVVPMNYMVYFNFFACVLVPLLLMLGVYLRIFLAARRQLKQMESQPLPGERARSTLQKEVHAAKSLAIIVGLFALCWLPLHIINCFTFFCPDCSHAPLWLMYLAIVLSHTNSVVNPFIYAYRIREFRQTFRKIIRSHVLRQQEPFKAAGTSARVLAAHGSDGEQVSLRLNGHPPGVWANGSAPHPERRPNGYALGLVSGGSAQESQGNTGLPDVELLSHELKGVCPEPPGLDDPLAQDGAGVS
Experimental: Purified anti-CD3 and anti-CD28 monoclonal antibodies (1 ug/ml) were then added to activate T cells for 48 hours.
Purified anti-CD3 and anti-CD28 monoclonal antibodies (1 ug/ml) were then added to activate T cells for 48 hours. In this study, AlphaLISA assays (PerkinElmer) analyzed on an EnVision MultiLabel Reader were used to measure cytokine release according to the manufacturer's instructions.

CT26 colon tumors = assay: Syngeneic CT26 mouse colon cancer model; conditions: CPI-444 100 mg/kg oral Day 0, 12 days, anti-PD-1 100 ug i.p. days 7, 9, 11, 13
Description: Treatment continued for 12 days.
Treatment continued for 7 days. […] Treatment continued for 7 days.
Treatment continued for 7 days.

[3] = test system: NECA-induced pCREB in B cells; assay: NECA-induced pCREB in B cells of whole blood of treated patients (flow cytometry)
Experimental: as §1

[4] = Plasma levels of CPI-444 in patients; type: in vivo, human; conditions: Day 14
solid tumor patients = assay: Phase 1/1b clinical trial in solid tumor patients; type: in vivo, human
Experimental: After a dose selection stage, pts are treated in 10 disease specific cohorts (5 single agent and 5 combination). Cohorts may be expanded based on response criteria: complete response, partial response or stable disease (SD). Biomarkers are evaluated including immune cells by flow cytometry in peripheral blood and pre/post treatment tumor biopsies as well as adenosine pathway modulation by immunohistochemistry and gene expression.
In step 1 of the trial, patients were dosed with either 100 mg BID for 14 days out of a 28 day cycle, 100 mg BID for 28 days, 200 mg QD for 14 days or 50 mg or 100 mg BID for 14 days in combination with […]® (840 mg Q2W). Pharmacodynamic analysis was conducted on peripheral blood cells to inform dose selection. Step 1 of Phase1/1b was fully enrolled (n=48) and dose was selected (100 mg BID) based on pharmacodynamic analysis of A2AR pathway.

[5] = cited from earlier work
MC38 colon tumors = assay: Syngeneic MC38 mouse colon carcinoma model
EL4 lymphoma = assay: Syngeneic EL4 mouse lymphoma model; type: in vivo; conditions: CPI-444 10, 30, 100 mg/kg daily oral
Experimental: Syngeneic C57BL/6 female mice (8-10 weeks old) were injected (via subcutaneous route) with EL4 cells.

A2AR [6] = molecular target: T1, A2AR; assay: cAMP production in NECA-stimulated primary human T cells (LANCE Ultra cAMP); type: cell-based; design: endogenous in cells; host or cells: primary human T cells / human PBMCs
Experimental: Adenosine signaling through A2AR leads to increases in the levels of cAMP.
T cells were isolated from human PBMC by negative selection and activated via CD3/CD28 stimulation for 48 hours to induce A2AR expression. Stimulated T cells were then “rested” for 24 hours by removal of CD3/CD28 stimulation in order to minimize background levels of cAMP.

A2AR [7] = molecular target: T1, A2AR; assay: pERK in human CD4+ T cells after TCR cross-linking; conditions: in the presence of NECA (1 μM)
A2AR [8] = molecular target: T1, A2AR; assay: pCREB in fresh PBMCs (B cell population) stimulated with NECA; conditions: primarily B cells
Description: Adenosine signaling via A2AR leads to an increase in intracellular cAMP and subsequent phosphorylation of CREB.

Renca = conditions: CPI-444 10 mg/kg from Day 16, 14 days; 50 mg/kg Cyclophosphamide on first day

Cc1ccc(-c2nc(N)nc3c2nnn3Cc2cccc(COC3CCOC3)n2)o1 (centres unmarked) [CPI-444]
CPI-444 plasma level above which pCREB inhibition is near complete [1]: greater than 2,000 ng/mL
IFNγ secretion in presence of A2AR agonist (A2AR [2]): restored
IL-2 secretion in presence of A2AR agonist (A2AR [2]): restored
tumor growth, single agents (CT26 colon tumors): inhibition of tumor growth; also recorded: inhibits the growth; also recorded: non-significant reductions in tumor growth
inhibition of pCREB ([3]; 50 mg BID cohort): not high enough for sustained inhibition; also recorded: Variable inhibition
inhibition of pCREB ([3]; 100 mg BID cohort): highest pCREB inhibition at trough and near complete inhibition after taking their morning dose; also recorded: high pCREB inhibition at trough and near complete inhibition after taking their morning dose
patients with complete and sustained inhibition of NECA-induced pCREB ([3]; 100 mg BID single agent, Day 14): 7 of 7
inhibition of pCREB ([3]; 200 mg QD cohort): achieves high peak levels but is not maintained at trough; also recorded: Variable inhibition
pCREB induction by NECA ([3]; following 14 days of treatment): attenuated
inhibition of NECA induced increase of pCREB ([3]; one subject, 200QD for 14 days, 1 μM NECA): partial inhibition
time of peak plasma drug levels [4]: 3 h
Grade 3 or 4 treatment related adverse events (solid tumor patients; 7 pts treated to date): no Grade 3 or 4 treatment related adverse events
TCR clonality following treatment (solid tumor patients; Nivolumab-refractory lung cancer patient, FIG. 21C): increased clonality
tumor response (solid tumor patients; Nivolumab-refractory lung cancer patient, single agent 100 mg po BID x 28 days/cycle): Tumor regression
PD-1+/CD8+ (activated CD8) and memory cell frequencies in blood (solid tumor patients; single agent and combination cohorts): Increases
TCR repertoire in peripheral blood (solid tumor patients; single agent, some patients): robust changes; also recorded: induced
tolerability (solid tumor patients; solid tumor patients): well tolerated
increases in PD-1+CD8+ cells in peripheral blood compared to baseline (solid tumor patients; the two pts with SD): 1.7 fold and 2.4 fold
adverse events ([5]; 75 subjects previously dosed): no significant adverse events
tolerability ([5]; non-oncology indications): well tolerated
mice in which rechallenge tumors were fully rejected (MC38 colon tumors; 9 mice rechallenged, over 15 days after first 5 days): 9 mice
tumor growth (MC38 colon tumors; CPI-444 1 mg/kg daily oral gavage 28 days, from one day after engraftment): did not inhibit tumor growth
tumor growth (MC38 colon tumors; CPI-444 10 mg/kg daily oral, 10 mg/kg): significantly inhibits; also recorded: significant inhibition of tumor growth
tumor growth (MC38 colon tumors; CPI-444 100 mg/kg daily oral, 100 mg/kg): significantly inhibits; also recorded: significant inhibition of tumor growth
eliminates tumors (MC38 colon tumors; CPI-444 100 mg/kg from Day 9, 14 days, anti-CTLA-4 9H10 100 ug days 9, 12, 15, 18): 20 % of mice
tumor growth, single agents (MC38 colon tumors; CPI-444 100 mg/kg from Day 9, anti-CTLA-4 100 ug): moderate tumor growth inhibition
tumor growth, single agents (MC38 colon tumors; CPI-444 100 mg/kg oral Day 0, 12 days, anti-PD-L1 200 ug i.p. days 7, 10, 13, 16): inhibition of tumor growth
eliminated tumors (MC38 colon tumors; CPI-444 dose response study): 30 % of mice
tumor growth on re-challenge of cured mice (MC38 colon tumors; MC38 re-challenge): fully inhibited
signs of reoccurrence (MC38 colon tumors; additional 6 weeks after end of study): No tumor growth was observed
complete tumor regression (MC38 colon tumors; all cohorts (1, 10, 100 mg/kg)): observed in a subset of mice
inhibition of tumor growth, dose response (MC38 colon tumors; daily CPI-444 1, 10, 100 mg/kg): dose-dependent inhibition
tumor elimination (MC38 colon tumors; daily CPI-444 1, 10, 100 mg/kg): 9/30
protected from rechallenge (MC38 colon tumors; mice with complete tumor growth inhibition, new MC38 engraftment, no additional treatment): 100%
levels of immune checkpoints GITR, OX40, LAG3 on tumor infiltrating lymphocytes and circulating T cells (MC38 colon tumors; mouse, in vivo): modulated
CD73 expression in tumors (IHC, frequency x intensity) (MC38 colon tumors; relative to control): significantly higher
response of established primary tumors (EL4 lymphoma): minimal therapeutic response
tumor growth in regional lymph nodes (number and size of enlarged nodes) (EL4 lymphoma): significant dose-dependent inhibition; also recorded: significant, dose-dependent decrease
cAMP production upon NECA stimulation, dependence on CPI-444 dose (A2AR [6]; FIG. 6): dose-dependent manner
production of cAMP upon NECA treatment (A2AR [6]; all levels of NECA tested (10^-5 to 10^-9 M), 10 minutes): completely blocked
ERK signaling / pERK levels in CD4+ T cells (A2AR [7]): restored pERK levels in a dose-dependent manner
NECA-induced CREB phosphorylation (A2AR [8]): completely inhibited

O=P1(N(CCCl)CCCl)NCCCO1 (centres unmarked) [Cyclophosphamide]
tumor growth / response rate (Renca): slight tumor growth inhibition

COc1cccc2c1C(=O)c1c(O)c3c(c(O)c1C2=O)C[C@@](O)(C(=O)CO)C[C@@H]3O[C@H]1C[C@H](N)[C@H](O)[C@H](C)O1 [Doxorubicin, reference compound]
tumor growth (MC38 colon tumors; CPI-444 100 mg/kg from Day 11, 14 days, 4 mg/kg Doxorubicin on first day): slight tumor growth inhibition
